According to patent US12077503B2, “Substituted cyclic amides and their use as herbicides” (FMC CORPORATION, priority 2015, dated 2024):

Columns and labels:
Type in all cases: in vivo
[1] = system: ducksalad (Heteranthera limosa); assay: Test B flooded paddy test; settings: Flood, 250 g ai/ha; 0 to 100 scale where 0 is no effect and 100 is complete control; 13 to 15 d
Summary of the method: (§1)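 Visual ratings (0 none to 100 complete control) are relative to untreated plants, taken 13–15 d after treatment in a greenhouse. Test material went straight into floodwater standing 3 cm above the soil, kept constant, on plants at the 2-leaf stage.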

[2] = system: barnyardgrass (Echinochloa crus-galli); assay: Test B flooded paddy test; settings: Flood, 250 g ai/ha; 0 to 100 scale where 0 is no effect and 100 is complete control; 13 to 15 d
Summary of the method: as §1

rice (Oryra sativa) = assay: Test B flooded paddy test; settings: Flood, 250 g ai/ha; 0 to 100 scale where 0 is no effect and 100 is complete control; 13 to 15 d
Summary of the method: as §1

[3] = system: sedge, umbrella (small-flower umbrella sedge, Cyperus difformis); assay: Test B flooded paddy test; settings: Flood, 250 g ai/ha; 0 to 100 scale where 0 is no effect and 100 is complete control; 13 to 15 d
Summary of the method: as §1

[4] = system: pigweed (Amaranthus retroflexus); assay: Test A preemergence; settings: Preemergence; for Plant response rating, Pigweed: 125 g ai/ha, visual injury after approximately 10 d, 0 to 100 scale where 0 is no effect and 100 is complete control; for Pigweed plant response rating (0 to 100 scale, 0 is no effect, 100 is complete control): 500 g ai/ha, visual injury approx. 10 d
[5] = system: ryegrass, Italian (Italian ryegrass, Lolium multiflorum); assay: Test A preemergence; settings: Preemergence; for Plant response rating, Ryegrass, Italian: 125 g ai/ha, visual injury after approximately 10 d, 0 to 100 scale where 0 is no effect and 100 is complete control; for Ryegrass, Italian plant response rating (0 to 100 scale, 0 is no effect, 100 is complete control): 500 g ai/ha, visual injury approx. 10 d
Summary of the method: (§2)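 Treatment is preemergence as a directed soil spray after planting, or postemergence at the one- to two-leaf stage, with test chemical in a non-phytotoxic solvent mixture plus surfactant. Plants stay in the greenhouse about 10 d before visual injury scoring on a 0 to 100 scale versus untreated controls.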

[6] = system: barnyardgrass (Echinochloa crus-galli); assay: Test A preemergence; settings: Preemergence; for Plant response rating, Barnyardgrass: 125 g ai/ha, visual injury after approximately 10 d, 0 to 100 scale where 0 is no effect and 100 is complete control; for Barnyardgrass plant response rating (0 to 100 scale, 0 is no effect, 100 is complete control): 500 g ai/ha, visual injury approx. 10 d
Summary of the method: as §2

[7] = system: giant foxtail (Setaria faberii); assay: Test A preemergence; settings: Preemergence; for Plant response rating, Foxtail, Giant: 125 g ai/ha, visual injury after approximately 10 d, 0 to 100 scale where 0 is no effect and 100 is complete control; for Foxtail, Giant plant response rating (0 to 100 scale, 0 is no effect, 100 is complete control): 500 g ai/ha, visual injury approx. 10 d
Summary of the method: as §2

Kochia (Kochia scoparia) [8] = assay: Test A preemergence; settings: Preemergence; for Plant response rating, Kochia: 125 g ai/ha, visual injury after approximately 10 d, 0 to 100 scale where 0 is no effect and 100 is complete control; for Kochia plant response rating (0 to 100 scale, 0 is no effect, 100 is complete control): 500 g ai/ha, visual injury approx. 10 d
Summary of the method: as §2

[9] = system: ragweed (common ragweed, Ambrosia elatior); assay: Test A preemergence; settings: Preemergence; for Plant response rating, Ragweed: 125 g ai/ha, visual injury after approximately 10 d, 0 to 100 scale where 0 is no effect and 100 is complete control; for Ragweed plant response rating (0 to 100 scale, 0 is no effect, 100 is complete control): 500 g ai/ha, visual injury approx. 10 d
Summary of the method: as §2

[10] = system: pigweed (Amaranthus retroflexus); assay: Test A postemergence; settings: for Pigweed plant response rating: 125 g ai/ha, postemergence, visual injury rating on 0 to 100 scale (0 no effect, 100 complete control), approx. 10 d; for Plant response rating, Pigweed: Postemergence, 500 g ai/ha, 0 to 100 scale where 0 is no effect and 100 is complete control
Summary of the method: as §2

[11] = system: wheat (Triticum aestivum); assay: Test A postemergence; settings: for Wheat plant response rating: 125 g ai/ha, postemergence, visual injury rating on 0 to 100 scale (0 no effect, 100 complete control), approx. 10 d; for Plant response rating, Wheat: Postemergence, 500 g ai/ha, 0 to 100 scale where 0 is no effect and 100 is complete control
Summary of the method: as §2

[12] = system: ryegrass, Italian (Italian ryegrass, Lolium multiflorum); assay: Test A postemergence; settings: for Ryegrass, Italian plant response rating: 125 g ai/ha, postemergence, visual injury rating on 0 to 100 scale (0 no effect, 100 complete control), approx. 10 d; for Plant response rating, Ryegrass, Italian: Postemergence, 500 g ai/ha, 0 to 100 scale where 0 is no effect and 100 is complete control
Summary of the method: as §2

[13] = system: Galium (catchweed bedstraw, Galium aparine); assay: Test A postemergence; settings: for Galium plant response rating: 125 g ai/ha, postemergence, visual injury rating on 0 to 100 scale (0 no effect, 100 complete control), approx. 10 d; for Plant response rating, Galium: Postemergence, 500 g ai/ha, 0 to 100 scale where 0 is no effect and 100 is complete control
Summary of the method: as §2

[14] = system: barnyardgrass (Echinochloa crus-galli); assay: Test A postemergence; settings: for Barnyardgrass plant response rating: 125 g ai/ha, postemergence, visual injury rating on 0 to 100 scale (0 no effect, 100 complete control), approx. 10 d; for Plant response rating, Barnyardgrass: Postemergence, 500 g ai/ha, 0 to 100 scale where 0 is no effect and 100 is complete control
Summary of the method: as §2

[15] = system: blackgrass (Alopecurus myosuroides); assay: Test A postemergence; settings: for Blackgrass plant response rating: 125 g ai/ha, postemergence, visual injury rating on 0 to 100 scale (0 no effect, 100 complete control), approx. 10 d; for Plant response rating, Blackgrass: Postemergence, 500 g ai/ha, 0 to 100 scale where 0 is no effect and 100 is complete control
Summary of the method: as §2

corn (Zea mays) = assay: Test A postemergence; settings: for Corn plant response rating: 125 g ai/ha, postemergence, visual injury rating on 0 to 100 scale (0 no effect, 100 complete control), approx. 10 d; for Plant response rating, Corn: Postemergence, 500 g ai/ha, 0 to 100 scale where 0 is no effect and 100 is complete control
Summary of the method: as §2

[16] = system: giant foxtail (Setaria faberii); assay: Test A postemergence; settings: for Foxtail, Giant plant response rating: 125 g ai/ha, postemergence, visual injury rating on 0 to 100 scale (0 no effect, 100 complete control), approx. 10 d; for Plant response rating, Foxtail, Giant: Postemergence, 500 g ai/ha, 0 to 100 scale where 0 is no effect and 100 is complete control
Summary of the method: as §2

Kochia (Kochia scoparia) [17] = assay: Test A postemergence; settings: for Kochia plant response rating: 125 g ai/ha, postemergence, visual injury rating on 0 to 100 scale (0 no effect, 100 complete control), approx. 10 d; for Plant response rating, Kochia: Postemergence, 500 g ai/ha, 0 to 100 scale where 0 is no effect and 100 is complete control
Summary of the method: as §2

[18] = system: ragweed (common ragweed, Ambrosia elatior); assay: Test A postemergence; settings: for Ragweed plant response rating: 125 g ai/ha, postemergence, visual injury rating on 0 to 100 scale (0 no effect, 100 complete control), approx. 10 d; for Plant response rating, Ragweed: Postemergence, 500 g ai/ha, 0 to 100 scale where 0 is no effect and 100 is complete control
Summary of the method: as §2

Row | Compound | Plant response rating, Ducksalad [1] | Plant response rating, Barnyardgrass [2] | Plant response rating, Rice (rice (Oryra sativa)) | Plant response rating, Sedge, Umbrella [3] | Plant response rating, Pigweed [4] | Pigweed plant response rating (0 to 100 scale, 0 is no effect, 100 is complete control) [4] | Plant response rating, Ryegrass, Italian [5] | Ryegrass, Italian plant response rating (0 to 100 scale, 0 is no effect, 100 is complete control) [5] | Plant response rating, Barnyardgrass [6] | Barnyardgrass plant response rating (0 to 100 scale, 0 is no effect, 100 is complete control) [6] | Plant response rating, Foxtail, Giant [7] | Foxtail, Giant plant response rating (0 to 100 scale, 0 is no effect, 100 is complete control) [7] | Plant response rating, Kochia (Kochia (Kochia scoparia) [8]) | Kochia plant response rating (0 to 100 scale, 0 is no effect, 100 is complete control) (Kochia (Kochia scoparia) [8]) | Plant response rating, Ragweed [9] | Ragweed plant response rating (0 to 100 scale, 0 is no effect, 100 is complete control) [9] | Pigweed plant response rating [10] | Plant response rating, Pigweed [10] | Wheat plant response rating [11] | Plant response rating, Wheat [11] | other results
1 | O=C1NCC(c2cccc(F)c2F)C1C(=O)Nc1ccccc1F (stereo not drawn) [Compound 494] | 30 | 20 | 0 | 0 | 0 | 0 | 0 | 0 | 70 | 90 | 80 | 90 | 0 | 0 | 0 | 0 | 0 | 0 | 0 | 0 | Ryegrass, Italian plant response rating [12]: 0; Plant response rating, Ryegrass, Italian [12]: 0; Galium plant response rating [13]: 0; Plant response rating, Galium [13]: 0; Barnyardgrass plant response rating [14]: 30; Plant response rating, Barnyardgrass [14]: 80; Blackgrass plant response rating [15]: 0; Plant response rating, Blackgrass [15]: 0; Corn plant response rating (corn (Zea mays)): 0; Plant response rating, Corn (corn (Zea mays)): 0; Foxtail, Giant plant response rating [16]: 20; Plant response rating, Foxtail, Giant [16]: 60; Kochia plant response rating (Kochia (Kochia scoparia) [17]): 0; Plant response rating, Kochia (Kochia (Kochia scoparia) [17]): 0; Ragweed plant response rating [18]: 0; Plant response rating, Ragweed [18]: 0
2 | C=C(C)CN1CC(c2cccc(C(F)(F)F)c2)C(C(=O)Nc2ccccc2F)C1=O (stereo not drawn) [Compound 481] | 0 | 0 | 0 | 0 | 0 | 0 | 0 | 0 | 0 | 10 | 50 | 90 | 0 | 0 | 0 | 0 | 0 | 0 | 0 | 20 | Ryegrass, Italian plant response rating [12]: 0; Plant response rating, Ryegrass, Italian [12]: 0; Galium plant response rating [13]: 0; Plant response rating, Galium [13]: 0; Barnyardgrass plant response rating [14]: 0; Plant response rating, Barnyardgrass [14]: 20; Blackgrass plant response rating [15]: 0; Plant response rating, Blackgrass [15]: 0; Corn plant response rating (corn (Zea mays)): 0; Plant response rating, Corn (corn (Zea mays)): 0; Foxtail, Giant plant response rating [16]: 0; Plant response rating, Foxtail, Giant [16]: 20; Kochia plant response rating (Kochia (Kochia scoparia) [17]): 0; Plant response rating, Kochia (Kochia (Kochia scoparia) [17]): 0; Ragweed plant response rating [18]: 0; Plant response rating, Ragweed [18]: 0
